What follows are compounds tested against T1, human PAD4 (Homo sapiens, UniProt Q9UM07) (assay: In vitro PAD4 BAEE biochemical assay). Details: BAEE substrate 3 mM, 5 nM PAD4, 2 mM calcium chloride; geometric mean of multiple experiments.
T1 construct: human PAD4 (NM_012387), A2-P663, was PCR amplified; His-SUMO (N, cleaved yes); made in house; host or cells: E. coli BL21(DE3)
Procedure, shortened: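 Recombinant PAD4 (5 nM final) with 2 mM CaCl2 was preincubated with compound for 30 min at 25 °C in MOPS pH 7.6 buffer with DTT, then reacted with 3 mM BAEE for 2 h at 25 °C. Released ammonia was detected fluorimetrically with o-phthalaldehyde/DTT; IC50 from four-parameter fit, geometric mean of experiments.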

T1 sequence (Q9UM07 2-663): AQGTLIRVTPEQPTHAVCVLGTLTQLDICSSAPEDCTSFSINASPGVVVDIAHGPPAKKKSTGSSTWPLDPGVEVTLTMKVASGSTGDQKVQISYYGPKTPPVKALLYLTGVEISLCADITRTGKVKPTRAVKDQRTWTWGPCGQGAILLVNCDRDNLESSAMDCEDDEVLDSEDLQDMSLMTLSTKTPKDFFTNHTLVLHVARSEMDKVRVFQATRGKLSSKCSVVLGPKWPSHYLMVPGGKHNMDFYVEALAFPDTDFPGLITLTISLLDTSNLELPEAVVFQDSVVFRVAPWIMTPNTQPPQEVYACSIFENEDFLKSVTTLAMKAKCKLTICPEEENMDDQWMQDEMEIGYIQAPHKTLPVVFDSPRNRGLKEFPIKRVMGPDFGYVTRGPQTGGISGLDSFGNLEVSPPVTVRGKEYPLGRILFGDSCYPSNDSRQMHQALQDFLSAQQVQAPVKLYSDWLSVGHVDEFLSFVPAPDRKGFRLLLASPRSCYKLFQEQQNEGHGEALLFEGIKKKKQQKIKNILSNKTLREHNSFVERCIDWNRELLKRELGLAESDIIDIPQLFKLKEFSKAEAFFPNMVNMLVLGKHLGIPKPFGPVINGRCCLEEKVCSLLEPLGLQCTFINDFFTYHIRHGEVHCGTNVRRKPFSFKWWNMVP

SMILES | IC50 [nM]
COc1cc(C(=O)N[C@@H]2CNC[C@H]3C[C@H]32)cc2nc(-c3cc4ccc5nc4n3CCCCCCC(C)(C)C(=O)N[C@@H]5C)n(C)c12 [Example 201, ~{N}-[(1~{S),5~{S},6~{R})-3-azabicyclo[4.1.0]heptan-5-yl]-7-methoxy-1-methyl-2-[(11~{R})-8,8,11-trimethyl-9-oxo-1,10,19-triazatricyclo[10.5.2.0^{15,18}]nonadeca-12(19),13,15(18),16-tetraen-17-yl]benzimidazole-5-carboxamide] | 737
COc1cc(C(=O)N[C@@H]2CNC[C@@H]3C[C@@H]32)cc2nc(-c3cc4ccc5nc4n3CCCCCCC(C)(C)C(=O)N[C@@H]5C)n(C)c12 [Example 202, ~{N}-[(1~{R},5~{S},6~{S})-3-azabicyclo[4.1.0]heptan-5-yl]-7-methoxy-1-methyl-2-[(11~{R})-8,8,11-trimethyl-9-oxo-1,10,19-triazatricyclo[10.5.2.0^{15,18}]nonadeca-12(19),13,15(18),16-tetraen-17-yl]benzimidazole-5-carboxamide] | 5130
COc1cc(C(=O)N[C@H]2CNC[C@H]3C[C@H]32)cc2nc(-c3cc4ccc5nc4n3CCCCCCC(C)(C)C(=O)N[C@@H]5C)n(C)c12 [Example 203, ~{N}-[(1~{S},5~{R},6~{R})-3-azabicyclo[4.1.0]heptan-5-yl]-7-methoxy-1-methyl-2-[(11~{R})-8,8,11-trimethyl-9-oxo-1,10,19-triazatricyclo[10.5.2.0^{15,18}]nonadeca-12(19),13,15(18),16-tetraen-17-yl]benzimidazole-5-carboxamide] | 114
COc1cc(C(=O)N2CC(N)CC(F)(F)C2)cc2nc(-c3cc4ccc5nc4n3CCCCCCC(C)(C)C(=O)N[C@@H]5C)n(C)c12 (stereo partly shown) [Example 204, (11~{R})-17-[5-(5-amino-3,3-difluoro-piperidine-1-carbonyl)-7-methoxy-1-methyl-benzimidazol-2-yl]-8,8,11-trimethyl-1,10,19-triazatricyclo[10.5.2.0^{15,18}]nonadeca-12(19),13,15(18),16-tetraen-9-one] | 3350
COc1cc(C(=O)N2C[C@H]3C[C@H]3[C@@H](N)C2)cc2nc(-c3cc4ccc5nc4n3CCCCCCC(C)(C)C(=O)N[C@@H]5C)n(C)c12 [Example 206, (11~{R})-17-[5-[(1~{S},5~{R},6~{R})-5-amino-3-azabicyclo[4.1.0]heptane-3-carbonyl]-7-methoxy-1-methyl-benzimidazol-2-yl]-8,8,11-trimethyl-1,10,19-triazatricyclo[10.5.2.0^{15,18}]nonadeca-12(19),13,15(18),16-tetraen-9-one] | 850
COc1cc(C(=O)N2[C@H]3CC[C@@H]2[C@H](N)[C@H](O)C3)cc2nc(-c3cc4ccc5nc4n3CCCCCCC3(CC3)C(=O)N[C@@H]5C)n(C)c12 [Example 207, (11~{R})-17-[5-[(1~{R},2~{S},3~{R},5~{S})-2-amino-3-hydroxy-8-azabicyclo[3.2.1]octane-8-carbonyl]-7-methoxy-1-methyl-benzimidazol-2-yl]-11-methyl-spiro[1,10,19-triazatricyclo[10.5.2.0^{15,18}]nonadeca-12(19),13,15(18),16-tetraene-8,1′-cyclopropane]-9-one] | 187
COc1cc(C(=O)N2CC[C@H]3OCCN[C@H]3C2)cc2nc(-c3cc4ccc5cc4n3CCCCCCC3(CC3)C(=O)N[C@@H]5C)n(C)c12 [Example 208, (11~{R})-17-[5-[(4~{a}-{S},8~{a}~{R})-2,3,4,4~{a},5,7,8,8~{a}-octahydropyrido[4,3-b][1,4]oxazine-6-carbonyl]-7-methoxy-1-methyl-benzimidazol-2-yl]-11-methyl-spiro[1,10-diazatricyclo[10.5.2.0^{15,18}]nonadeca-12(19),13,15(18),16-tetraene-8,1′-cyclopropane]-9-one] | 136
COc1cc(C(=O)N2[C@H]3CC[C@@H]2[C@H](N)C3)cc2nc(-c3cc4ccc5nc4n3CCCCN(C)C(=O)N[C@@H]5C)c(C)n12 [Example 209, (9˜{R})-15-[7-[(1˜{R},2˜{R},4˜{S})-2-amino-7-azabicyclo[2.2.1]heptane-7-carbonyl]-5-methoxy-3-methyl-imidazo[1,2-a]pyridin-2-yl]-6,9-dimethyl-1,6,8,17-tetrazatricyclo[8.5.2.0^{13,16}]heptadeca-10(17),11,13(16),14-tetraen-7-one] | 74
COc1cc(C(=O)N2[C@H]3CC[C@@H]2[C@H](N)C3)cc2nc(-c3cc4ccc5nc4n3CCCCCN(C)C(=O)N[C@@H]5C)c(C)n12 [Example 210, (10~{R})-16-[7-[(1~{R},2~{R},4~{S})-2-amino-7-azabicyclo[2.2.1]heptane-7-carbonyl]-5-methoxy-3-methyl-imidazo[1,2-a]pyridin-2-yl]-7,10-dimethyl-1,7,9,18-tetrazatricyclo[9.5.2.0^{14,17}]octadeca-11(18),12,14(17),15-tetraen-8-one] | 39
COc1cc(C(=O)N2[C@H]3CC[C@@H]2[C@H](N)C3)cc2nc(-c3cc4ccc5nc4n3CCCCCCCN(C)C(=O)N[C@@H]5C)c(C)n12 [Example 211, (12~{R})-18-[7-[(1~{R},2~{R},4~{S})-2-amino-7-azabicyclo[2.2.1]heptane-7-carbonyl]-5-methoxy-3-methyl-imidazo[1,2-a]pyridin-2-yl]-9,12-dimethyl-1,9,11,20-tetrazatricyclo[11.5.2.0^{16,19}]icosa-13(20),14,16(19),17-tetraen-10-one] | 34
COc1cc(C(=O)N2[C@H]3CC[C@@H]2[C@H](N)C3)cc2nc(-c3cc4ccc5nc4n3CCCCCCN(C)C(=O)N[C@@H]5C)c(C)n12 [Example 212, (11~{R})-17-[7-[(1~{R},2~{R},4~{S})-2-amino-7-azabicyclo[2.2.1]heptane-7-carbonyl]-5-methoxy-3-methyl-imidazo[1,2-a]pyridin-2-yl]-8,11-dimethyl-1,8,10,19-tetrazatricyclo[10.5.2.0^{15,18}]nonadeca-12(19),13,15(18),16-tetraen-9-one] | 22
COc1cc(C(=O)N2[C@H]3CC[C@@H]2[C@H](N)C3)cc2nc(-c3cc4ccc5nc4n3CCCCCCOc3ccccc3C(=O)N[C@@H]5C)c(C)n12 [Example 213, (2~{R})-19-[7-[(1~{R},2~{R},4~{S})-2-amino-7-azabicyclo[2.2.1]heptane-7-carbonyl]-5-methoxy-3-methyl-imidazo[1,2-a]pyridin-2-yl]-2-methyl-11-oxa-3,18,24-triazatetracyclo[16.5.2.0^{5,10}.0^ {21,25}]pentacosa-1(24),5(10),6,8,19,21(25),22-heptaen-4-one] | 385
COc1cc(C(=O)N2[C@H]3CC[C@@H]2[C@H](N)C3)cc2nc(-c3cc4ccc5nc4n3C[C@H]3C[C@@H]3COCCC(=O)N[C@@H]5C)c(C3CC3)n12 [Example 214, (3~{S),5~{S},12~{R})-18-[7-[(1~{R},2~{R},4~{S})-2-amino-7-azabicyclo[2.2.1]heptane-7-carbonyl]-3-cyclopropyl-5-methoxy-imidazo[1,2-a]pyridin-2-yl]-12-methyl-7-oxa-1,11,20-triazatetracyclo[11.5.2.0^{3,5}.0^{16,19}] icosa-13(20),14,16(19),17-tetraen-10-one] | 15

From patent US11976083B2, “Inhibitors of peptidylarginine deiminases” (Gilead Sciences, Inc., priority 2020, dated 2024)
